Structures are written as SMILES.

What all share (type): functional
One assay concerns KB. As to the kind of experiment: Growth inhibition of human KB cells at 10 uM after 72 hrs by MTS assay. The conditions noted are these: read-out: GI. (In general: Tetrazolium assays rely on reduction of a dye to a coloured formazan, in cell work by metabolically active cells.)
Assay [1] is described as follows: Growth inhibition of human HCT116 cells at 10 uM after 72 hrs by MTS assay. To be noted: HCT-116, 72 h, read-out: GI.
Another assay deals with MCF7. As to the kind of experiment: Growth inhibition of human MCF7 cells at 10 uM after 72 hrs by MTS assay. To be noted: MCF7, 72 h, read-out: GI.
Assay [2] is described as follows: Growth inhibition of human HL60 cells at 10 uM after 72 hrs by MTS assay. To be noted: HL-60, 72 h, read-out: GI.

As to `COC(=O)C1(Cc2ccc(C(F)(F)F)cc2)CC(=O)OC1c1ccccc1` (configuration not stated), the inhibition of growth at 10 µM with KB worked out at 4%; in assay [1] it was 4%; in the assay with MCF7 it was 0%; in assay [2] it was 4%.
For the compound `COC(=O)C1(Cc2ccc(OC)cc2)CC(=O)OC1c1ccc(F)cc1` (configuration not stated), the inhibition of growth at 10 µM worked out at 33% in the assay with KB, 0% in assay [1], 4% with MCF7 and 37% in assay [2].
Consider `COC(=O)C1(Cc2cccc(OC)c2)CC(=O)OC1(C)c1ccccc1` (configuration not stated), for which the inhibition of growth at 10 µM with KB is 5%; in assay [1], 14%; in the assay with MCF7, 16%; in assay [2], 30%.
As to `COC(=O)C1(Cc2cccc(C(F)(F)F)c2)CC(=O)OC1(C)c1ccccc1` (configuration not stated), the inhibition of growth at 10 µM in the assay on KB was 21%; in assay [1] it was 22%; in the assay on MCF7, 20%; in assay [2], 21%.
Turning to `CCCCCCC1OC(=O)CC1(Cc1ccc(OC)cc1)C(=O)OC` (configuration not stated), the inhibition of growth at 10 µM with KB was 13%; in assay [1], 12%; in the assay on MCF7, 28%; in assay [2], 8%.
`COC(=O)C1(Cc2ccc(C(F)(F)F)cc2)CC(=O)OC1(C)c1ccccc1` (configuration not stated): the inhibition of growth at 10 µM was determined as 15% in the assay with KB, 25% in assay [1], 19% in the assay on MCF7 and 28% in assay [2].
Take `COC(=O)C1(Cc2ccccc2OC)CC(=O)OC1(C)c1ccccc1` (configuration not stated): the inhibition of growth at 10 µM in the assay with KB worked out at 9%; in assay [1], 13%; with MCF7, 10%; in assay [2], 34%.
On to `COC(=O)C1(Cc2ccc(OC)cc2)CC(=O)OC1c1ccc(C(F)(F)F)cc1` (configuration not stated), for which the inhibition of growth at 10 µM was found to be 0% in the assay on KB, 0% in assay [1], 4% with MCF7 and 2% in assay [2].
Turning to `COC(=O)C1(Cc2ccc(OC)cc2)CC(=O)OC1c1ccccc1` (configuration not stated), the inhibition of growth at 10 µM with KB was 19%; in assay [1], 4%; in the assay on MCF7 it was 0%; in assay [2] it was 15%.
In the same order, the values of `COC(=O)C1(Cc2ccccc2)CC(=O)OC1c1cc(OC)c(OC)c(OC)c1` (configuration not stated) are 2%, 7%, 17% and 27%.
For `COC(=O)C1(Cc2cccc(OC)c2)CC(=O)OC1c1cc(OC)c(OC)c(OC)c1` (configuration not stated), the inhibition of growth at 10 µM in the assay on KB is 0%; in assay [1], 20%; in the assay with MCF7, 13%; in assay [2] it was 10%.
`COC(=O)C1(Cc2ccc3c(c2)OCO3)CC(=O)OC1c1cc(OC)c(OC)c(OC)c1` (configuration not stated): the inhibition of growth at 10 µM in the assay on KB turned out to be 0%; in assay [1], 22%; with MCF7 it was 8%; in assay [2], 10%.
The like results for `COC(=O)C1(Cc2ccc(OC)cc2)CC(=O)OC1c1ccco1` (configuration not stated) were, in that order, 32%, 0%, 0% and 29%.
Take `COC(=O)C1(Cc2ccccc2)CC(=O)OC1(C)c1ccccc1` (configuration not stated): the inhibition of growth at 10 µM came to 6% in the assay on KB, 9% in assay [1], 13% with MCF7 and 22% in assay [2].
The like results for `CCC1(c2ccccc2)OC(=O)CC1(Cc1ccc(OC)cc1)C(=O)OC` (configuration not stated) were, in that order, 11%, 28%, 21% and 30%.
On to `COC(=O)[C@]1(Cc2ccc(OC)cc2)CC(=O)O[C@]1(C)c1ccccc1`, for which the inhibition of growth at 10 µM with KB worked out at 15%; in assay [1], 0%; in the assay with MCF7, 0%; in assay [2], 24%.
Take `COC(=O)C1(Cc2ccccc2)CC(=O)OC1(C)C` (configuration not stated): the inhibition of growth at 10 µM came to 0% with KB, 15% in assay [1], 7% in the assay on MCF7 and 9% in assay [2].
The like results for `COC(=O)C1(Cc2ccccc2)CC(=O)OC1(C)c1cc(OC)c(OC)c(OC)c1` (configuration not stated) were, in that order, 0%, 0%, 2% and 7%.
`COC(=O)C1(Cc2ccccc2)CC(=O)OC1(C)c1cccc(C(F)(F)F)c1` (configuration not stated): the inhibition of growth at 10 µM turned out to be 34% in the assay on KB, 14% in assay [1], 14% in the assay on MCF7 and 20% in assay [2].
As for `COC(=O)C1(Cc2ccc3c(c2)OCO3)CC(=O)OC1c1ccccc1` (configuration not stated), the inhibition of growth at 10 µM in the assay with KB came out at 0%; in assay [1], 18%; with MCF7, 11%; in assay [2], 18%.
On to `COC(=O)c1ccc(CC2(C(=O)OC)CC(=O)OC2(C)c2ccccc2)cc1` (configuration not stated), for which the inhibition of growth at 10 µM was 22% in the assay with KB, 44% in assay [1], 35% in the assay on MCF7 and 43% in assay [2].
On to `COC(=O)C1(Cc2cc(OC)c(OC)c(OC)c2)CC(=O)OC1c1cc(OC)c(OC)c(OC)c1` (configuration not stated), for which the inhibition of growth at 10 µM in the assay with KB came to 0%; in assay [1] it was 13%; with MCF7, 3%; in assay [2], 0%.
Turning to `COC(=O)C1(Cc2cc(OC)c(OC)c(OC)c2)CC(=O)OC1c1ccccc1` (configuration not stated), the inhibition of growth at 10 µM in the assay on KB was 0%; in assay [1], 16%; in the assay on MCF7, 1%; in assay [2], 7%.
On to `COC(=O)c1ccc(CC2(C(=O)OC)CC(=O)OC2c2ccccc2)cc1` (configuration not stated), for which the inhibition of growth at 10 µM amounted to 12% with KB, 0% in assay [1], 0% in the assay on MCF7 and 19% in assay [2].
Take `COC(=O)C1(Cc2ccc(OC)cc2)CC(=O)OC1(C)c1cccc(C(F)(F)F)c1` (configuration not stated): the inhibition of growth at 10 µM in the assay with KB turned out to be 38%; in assay [1] it was 30%; in the assay on MCF7 it was 46%; in assay [2] it was 52%.
In the same order, the values of `COC(=O)C1(Cc2ccccc2C(F)(F)F)CC(=O)OC1(C)c1ccccc1` (configuration not stated) are 0%, 18%, 6% and 0%.
In the same order, the values of `COC(=O)C1(Cc2cccc(OC)c2)CC(=O)OC1c1ccccc1` (configuration not stated) are 0%, 14%, 12% and 37%.
As to `COC(=O)C1(Cc2ccccc2OC)CC(=O)OC1c1ccccc1` (configuration not stated), the inhibition of growth at 10 µM was determined as 7% with KB, 23% in assay [1], 18% in the assay with MCF7 and 42% in assay [2].
For the compound `COC(=O)C1(Cc2ccccc2)CC(=O)OC12CCCCC2` (configuration not stated), the inhibition of growth at 10 µM was found to be 7% in the assay with KB, 0% in assay [1], 1% in the assay with MCF7 and 4% in assay [2].
As to `COC(=O)C1(Cc2ccc(OC)cc2)CC(=O)OC1c1ccccc1C(F)(F)F` (configuration not stated), the inhibition of growth at 10 µM in the assay on KB came out at 31%; in assay [1], 0%; with MCF7, 0%; in assay [2], 23%.
In the case of `CCC1(c2ccccc2)OC(=O)CC1(Cc1ccccc1)C(=O)OC` (configuration not stated), the inhibition of growth at 10 µM came to 22% in the assay with KB, 25% in assay [1], 12% with MCF7 and 17% in assay [2].
In the same order, the values of `COC(=O)C1(Cc2ccccc2OC)CC(=O)OC1c1cc(OC)c(OC)c(OC)c1` (configuration not stated) are 6%, 19%, 12% and 22%.
As to `COC(=O)C1(Cc2ccc(OC)cc2)CC(=O)OC1c1cccc(C(F)(F)F)c1` (configuration not stated), the inhibition of growth at 10 µM in the assay with KB was found to be 25%; in assay [1], 10%; in the assay with MCF7, 15%; in assay [2], 14%.
The like results for `COC(=O)C1(Cc2cccc(C(F)(F)F)c2)CC(=O)OC1c1ccccc1` (configuration not stated) were, in that order, 39%, 14%, 11% and 34%.
For `COC(=O)C1(Cc2ccccc2)CC(=O)OC1c1ccccc1` (configuration not stated), the inhibition of growth at 10 µM with KB is 18%; in assay [1], 0%; in the assay with MCF7 it was 0%; in assay [2], 22%.
Regarding `COC(=O)C1(Cc2ccc(OC)cc2)CC(=O)OC1c1cc(OC)c(OC)c(OC)c1` (configuration not stated), the inhibition of growth at 10 µM was determined as 16% in the assay on KB, 24% in assay [1], 27% in the assay with MCF7 and 32% in assay [2].
Take `COC(=O)C1(Cc2ccccc2C(F)(F)F)CC(=O)OC1c1ccccc1` (configuration not stated): the inhibition of growth at 10 µM with KB came out at 42%; in assay [1] it was 25%; in the assay with MCF7 it was 35%; in assay [2] it was 28%.
On to `COC(=O)[C@@]1(Cc2ccc(OC)cc2)CC(=O)O[C@]1(C)c1ccccc1`, for which the inhibition of growth at 10 µM with KB worked out at 98%; in assay [1], 56%; with MCF7, 59%; in assay [2] it was 68%.
